Laboratory results published in US9228202B2, “Intracellular viral vector delivery method employing iron ion/viral vector composite” (POSTECH ACADEMY-INDUSTRY FOUNDATION, priority 2009, dated 2016).

Legend:
rBMSC [1] = assay: Comparison of intracellular delivery of adenoviral vector among ferrous, ferric and calcium ions; assay type: cell-based, rat; settings: rAd/EGFP 30 MOI with 50 μM cation
Method: To examine whether ferric irons (Fe^3+) improve the delivery of […] into cells, the adenoviral vector rAd/EGFP, which carries a GFP (green fluorescent protein) gene, was employed. First, 30 or 100 MOI of rAd/EGFP was mixed and incubated with 2 μM, 10 μM or 50 μM ferric ions for 30 min at room temperature, followed by infection for 2 hours into rat bone marrow mesenchymal stem cells (rBMSC), the human cervical cancer cell line HeLa, and the human amelanotic melanoma cell line (A375), all free from the expression of CAR, a primary receptor for adenoviruses. Then, the viral mixture was removed and the medium was changed with DMEM before incubation for two days in a CO2 incubator (CO2 water Jacketed Incubator, Form a Scientific™). The cells were detached by trypsinization and analyzed for intracellular GFP level using FACS (fluorescence activated cell sorter, BD).
Ferrous and ferric ions were compared with calcium ions, known to improve the gene delivery of adenoviral vectors, for efficacy of gene delivery. In this regard, rBMSC was treated with rAd/EGFP (30 MOI) and 50 μM cations (Fe^2+, Fe^3+, Ca^2+) in the same manner as in Example 1, and the efficacy of gene delivery was compared among the cations.

rBMSC [2] = assay: Cytotoxicity assay of ferric ions (CCK8 cell viability); assay type: cell-based, rat
Method: A cytotoxicity assay was done with rBMSC in order to evaluate the safety of ferric ions alone or the ferric ion/adenoviral vector composite to the body. rBMSC was incubated for 2 hours with 0.2 μM˜50 mM ferric ions alone or in combination with 100 MOI of an adenoviral vector. On the next day, cell viability was determined using a CCK8 kit (DOJINDO, Japan).

| SMILES | gene delivery efficiency relative to calcium ions (rBMSC [1]) | 50% cell viability concentration relative to the iron ion concentration used for gene delivery (10~50 μM) (rBMSC [2]) | iron ion concentration at which cytotoxicity starts (rBMSC [2]; 2 h incubation, CCK8 next day) | cell viability (rBMSC [2]; iron ion concentration of 50 mM, CCK8) |
| --- | --- | --- | --- | --- |
| [Fe+3] [ferric ions] | 60 times | 1000 fold | 10 mM | decreased to zero |
| [Fe+2] [ferrous ions] | 60 times | – | – | – |
